Test results from patent publication US12162879B2, “Pyridopyrimidine derivative, preparation method therefor and medical use thereof” (Jiangsu Hengrui Medicine Co., Ltd., priority 2018, dated 2024).

Assays:
[1] = system: peripheral blood mononuclear cells (PBMC); experiment: Stimulation of IL12 secretion from PBMC (ELISA); format: cell-based; settings: minimum effective concentration, human PBMC, 24 hours
Protocol: (§1) The stimulating effect of the compounds of the present invention on the ability of secretion of IL12 and IFN γ from PBMC was determined by the following experimental method.
(§2) • 1. RMPI 1640 (Invitrogen, 11875); • 2. FBS (Gibco, 10099-141); • 3. Ficoll-Paque PREMIUM (GE, 17-5442-02); • 4. Trypan blue solution (Sigma, T8154-100 ML); • 5. SepMate™-50 (Stemcell, 15460); • 6. Bright-LineIM blood cell counter (Sigma, Z359629-1EA); • 7. 96-well cell culture plate (Corning, 3599); • 8. 96-well v-bottom plate (Corning, 3894); • 9. Human IL-12 ELISA kit (Neobioscience Technology Co., EHC152.96); • 10. Human IFN γ kit (cisbio, 62HIFNGPEG); and • 11. PHERAStar multi-function microplate reader (BMG, PHERAStar). II. Experimental Procedures
(§3) The compound was diluted with pure DMSO to a maximum concentration of 5 mM, and a total of 9 points were obtained by a 4-fold gradient dilution. 4 μl of the compound solution was then added to 196 μl of RMPI 1640 medium containing 10% FBS and mixed well. 50 μl of the mixture was taken and added to a 96-well cell culture plate.
(§4) All reagents were equilibrated to room temperature. 60 ml of blood from a healthy human and the same volume of PBS (containing 2% FBS) were added to a 250 ml culture flask, gently pipetted, mixed well and diluted. 15 ml of lymphocyte separation solution Ficoll-Paque PREMIUM was added to a 50 ml PBMC centrifuge tube SepMate™-50, followed by the addition of 30 ml of the above diluted blood. The mixture was centrifuged at 1200 g for 10 minutes at room temperature. The supernatant was taken and then centrifuged at 300 g for 8 minutes. The cells were re-suspended in the RMPI 1640 medium containing 10% FBS and counted, and the number of PBMCs was adjusted to 3.33×10^6 cells/ml. 150 μl of the cell solution was added to the plate containing the compounds, and incubated in an incubator at 37° C., 5.0% CO2 for 24 hours. The cell culture plate was placed in a centrifuge, and centrifuged at 1200 rpm for 10 minutes at room temperature. 150 μl of the supernatant was taken from each well.
The reagents in the Human IL-12 ELISA kit were equilibrated to room temperature. According to the kit's instruction, the highest concentration of the standard is 2000 pg/ml, and a total of 8 points were obtained by a 2-fold gradient dilution. The sample to be tested was diluted 20 folds. The solution was then added to a pre-coated plate at 100 μl/well. The plate was incubated at 37° C. for 90 minutes and rinsed. The […] was added at 100 μl/well, and the plate was incubated at 37° C. for 60 minutes and rinsed. HRP binding enzyme was added at 100 μl/well, and the plate was incubated at 37° C. for 30 minutes and rinsed. TMB was added, and the plate was incubated at room temperature for 5 minutes. Finally, the stop solution was added to stop the reaction, and the absorbance at 450 nm was read by the microplate reader.
(§5) The concentration of the compound that can stimulate PBMC to produce […] that is 3 times higher than the average value of the group without the compound (SD of the group without the compound) was defined as the minimum effective concentration (MEC) value of the compound.

[2] = system: peripheral blood mononuclear cells (PBMC); experiment: Stimulation of IFNγ secretion from PBMC; format: cell-based; settings: minimum effective concentration, human PBMC, 24 hours
Protocol: as §1, §2, §3, §4
The reagents in the Human IFN γ test kit were equilibrated to room temperature. The standard and detection antibody were prepared according to the kit's instruction under dark conditions. 16 μl of the supernatant obtained by centrifugation was added to each well, and 4 μl of freshly prepared mixed detection antibody was added to each well. The solution was mixed well by shaking, and incubated overnight in the dark at room temperature. The plate was read by the PHERAStar multi-function microplate reader.
as §5

| SMILES | IL12 MEC [1] | IFNγ MEC [2] |
| --- | --- | --- |
| CCCC[C@](C)(CO)Nc1nc(N)nc2cc(-c3ccc(CN4CCCC4)nc3)cnc12 [Example 2, (R)-2-((2-Amino-7-(6-(pyrrolidin-1-ylmethyl)pyridin-3-yl)pyrido[3,2-d]pyrimidin-4-yl)amino)-2-methylhexan-1-ol] | 23 nM | 24 nM |
| CCCC[C@](C)(CO)Nc1nc(N)nc2cc(-c3ccc(C4CCN(C)CC4)nc3)cnc12 [Example 4, (R)-2-((2-Amino-7-(6-(1-methylpiperidin-4-yl)pyridin-3-yl)pyrido[3,2-d]pyrimidin-4-yl)amino)-2-methylhexan-1-ol] | 31 nM | 33 nM |
| CCCC[C@](C)(CO)Nc1nc(N)nc2cc(-c3ccc(CN4CCN(C)CC4)nc3)cnc12 [Example 6, (R)-2-((2-Amino-7-(6-((4-methylpiperazin-1-yl)methyl)pyridin-3-yl)pyrido[3,2-d]pyrimidin-4-yl)amino)-2-methylhexan-1-ol] | 41 nM | – |
| CCCC[C@](C)(CO)Nc1nc(N)nc2cc(-c3cnc(C4CCN(C)CC4)nc3)cnc12 [Example 8, (R)-2-((2-Amino-7-(2-(1-methylpiperidin-4-yl)pyrimidin-5-yl)pyrido[3,2-d]pyrimidin-4-yl)amino)-2-methylhexan-1-ol] | 5 nM | – |
